Columns and labels:
PP2A = PP2A activity (phosphatase ELISA) in rat brain slices; assay type: cell-based; details: brain slices incubated with BMAA 1 mM for 2 h in artificial cerebrospinal fluid
Procedure: (§1) Male Wistar rats (Charles River Laboratories), 2-3 months old, were anesthetized by i.p. injection with 50 mg/kg Nembutal. The animals were decapitated when deeply anesthetized. The brains were removed immediately and cooled in ice-cold (4° C.) oxygenated artificial cerebrospinal fluid (aCSF) consisting of 126 mM NaCl, 3.5 mM KCl, 1.2 mM NaH2PO4, 1.3 mM MgCl2, 2 mM CaCl2, 11 mM D(+) glucose, and 25 mM NaHCO3 (pH 7.4) for 7-8 min. Each brain then was divided sagittally, and 400-μm-thick coronal slices were made with a Camden Vibraslicer (WP, Inc.). The slices were transferred into a chamber containing the oxygenated aCSF and were incubated at 33° C. for 2 h in the presence or absence of 1 mM, β-N ? methylamino-L-alanine (BMAA) dissolved in 10 mM NaHCO3 (Sigma). The oxygenation of the aCSF was carried out by bubbling the solution with a mixture of 95% O2 and 5% CO2 during the entire procedure. At the end of incubation, the brain slices were homogenized with homogenizing buffer [50 mM Tris·HCl (pH 7.4), 8.5% (wt/vol) sucrose, 2 mM EDTA, 2 mM EGTA, 10 mM (3-mercaptoethanol, 5 mM benzamidine, 0.5 mM 4-(2-Aminoethyl) benzenesulfonyl fluoride hydrochloride (AEBSF), 4 μg/mL pepstatin A, and 10 μg/mL each of aprotinin and leupepin] at a ratio of 9.0 mL buffer/1.0 g tissue slices. The homogenates were divided into two parts. One part was centrifuged at 16,000×g for 10 min, and the resulting supernatant was used to assay protein phosphatase 2A (PP2A) activity. Into the other half, an equal volume of phosphatase-inhibitor mixture (20 mM 3-glycerophosphate, 2 mM Na3VO4, and 100 mM NaF) was added immediately, and the samples were used for Western blots.

motor neurons = details: cited from earlier work
[1] = system: mixed primary neuronal culture; assay: LDH release assay in mixed primary neuronal culture; assay type: cell-based, mouse; details: 1 mM BMAA, 24 h
Procedure: Mouse hippocampal neuronal cultures were prepared from d 18 embryos as previously described (1). Briefly, C57BL/6 pregnant female mice from Charles River Laboratories were killed by cervical dislocation. All studies were performed in accordance with the recommendations in the Guide for the Care and Use of Laboratory Animals of the National Institutes of Health (2). The protocol was approved by Institutional Animal Care and Use Committee of the New York Institute for Basic Research in Developmental Disabilities. All surgeries were performed under anesthesia, and all efforts were made to minimize suffering. Embryos were removed and placed in cold Hibernate A (BrainBits, LLC), and all the following steps were performed in ice-cold Hibernate A, under a stereoscopic (dissection) microscope placed in a laminar flow hood. Fetal brains were removed carefully, and forebrains were separated. The hippocampus, including the cortex surrounding the area of the hippocampus, was dissected and cut into small pieces using microsurgical scissors. […]

mGluR5-PP2A complex = biological target: T1, mGluR5-PP2A complex (Mus musculus, UniProt Q3UVX5); assay: Coimmunoprecipitation of PP2Ac with mGluR5 in primary neurons; assay type: cell-based; details: primary neuronal cultures, 1 mM BMAA
T1 construct: endogenous in cells; host or cells: mouse primary hippocampal neuronal cultures
T1 sequence (Q3UVX5 19-1203, one chain of several): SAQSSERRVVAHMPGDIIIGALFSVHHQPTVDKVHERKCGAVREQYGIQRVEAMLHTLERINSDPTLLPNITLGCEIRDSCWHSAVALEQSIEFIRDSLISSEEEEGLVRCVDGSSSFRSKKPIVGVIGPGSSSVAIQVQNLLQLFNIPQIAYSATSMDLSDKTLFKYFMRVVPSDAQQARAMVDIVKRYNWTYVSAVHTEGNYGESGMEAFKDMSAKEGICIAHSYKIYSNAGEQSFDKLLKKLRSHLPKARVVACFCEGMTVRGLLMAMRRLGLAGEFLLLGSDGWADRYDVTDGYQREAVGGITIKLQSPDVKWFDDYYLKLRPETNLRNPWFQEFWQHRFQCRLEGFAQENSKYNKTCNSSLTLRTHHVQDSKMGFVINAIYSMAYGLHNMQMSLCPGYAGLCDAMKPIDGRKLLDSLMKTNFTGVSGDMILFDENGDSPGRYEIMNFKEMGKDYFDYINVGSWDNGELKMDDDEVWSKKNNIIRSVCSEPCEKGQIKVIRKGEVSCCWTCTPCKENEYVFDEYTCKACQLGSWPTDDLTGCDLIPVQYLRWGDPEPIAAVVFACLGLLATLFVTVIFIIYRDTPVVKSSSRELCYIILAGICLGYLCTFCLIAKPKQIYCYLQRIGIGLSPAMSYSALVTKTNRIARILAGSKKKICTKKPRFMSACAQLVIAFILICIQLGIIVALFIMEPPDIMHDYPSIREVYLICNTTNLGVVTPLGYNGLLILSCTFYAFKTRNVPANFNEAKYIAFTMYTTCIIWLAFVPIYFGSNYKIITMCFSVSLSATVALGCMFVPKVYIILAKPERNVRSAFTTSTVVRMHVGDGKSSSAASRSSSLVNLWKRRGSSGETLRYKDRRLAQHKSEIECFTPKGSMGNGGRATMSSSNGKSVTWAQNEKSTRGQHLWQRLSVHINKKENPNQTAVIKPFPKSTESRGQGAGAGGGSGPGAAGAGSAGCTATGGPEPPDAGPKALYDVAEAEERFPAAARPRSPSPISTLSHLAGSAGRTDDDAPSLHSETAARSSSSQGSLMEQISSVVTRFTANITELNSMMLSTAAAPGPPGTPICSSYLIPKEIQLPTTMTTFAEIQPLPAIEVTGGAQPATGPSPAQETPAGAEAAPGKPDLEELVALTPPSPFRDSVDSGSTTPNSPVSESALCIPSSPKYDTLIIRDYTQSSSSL
Procedure: Mouse hippocampal cell proteins were prepared with low-stringency lysis buffer [50 mM Hepes (pH 7.4), 10% (vol/vol) glycerol, 1.5 mM MgCl2, 5 mM NaF, 1 mM Na3VO4, 1 mM EDTA, 1 mM EGTA, 1% Nonidet P-40, 5 mM AEBSF, 10 μg/mL aprotinin, leupeptin, pepstatin] and were homogenized by several freeze-thaw cycles followed by water bath sonication. The homogenate was centrifuged at 14,000×g at 4° C. for 15 min. For transfection experiments with vector (DsRed) and with DsRed-PP2A catalytic subunit (PP2Ac), primary neurons were processed in a similar manner. The supernatants then were used for immunoprecipitation with mouse anti-PP2A (1D6; Millipore) followed by incubation with protein G-Sepharose (Thermo Scientific). The Western blots of immunoprecipitates were probed with rabbit anti-mGluR5 (Millipore) and rabbit anti-PP2Ac [R123d] (FIG. 55).

tau = assay: Tau phosphorylation (Western blots) in metabolically active rat brain slices; assay type: cell-based; details: 1 mM BMAA, 2-3 h, adult Wistar rat brain slices
Procedure: as §1
Protein was fractionated by 10% SDS/PAGE, transferred to PVDF membrane, and then blocked with 5% skim milk for 1 h at room temperature. The membrane was probed with anti-IPP2A (5G6, 1:1, 500) (7), anti-I2P2A (10E7, 1:1, 600) (7), anti-tau ˜92e; 1:5,000) (8), anti-tau (R134d; 1:5 000) (9), anti-tau pSer^262/^356 (12E8; 1:500) (10, anti-tau pSer^199, anti-tau pThr^205, anti-tau pThr^212, and pSer^396 (1:1,000) (Biosource), anti-GAPDH (1:2,000) (Santa Cruz Biotechnology), anti-PP2Ac (1:10 000) (BD Transduction Lab), anti pY^307-PP2A and anti-DML^309-PP2A (1:1,000) (Millipore), anti-GSK-3(α/β), anti-pS^9-GSK-3 β, anti-ERK1/2, anti-pT^202/Y^204-ERK1/2, anti-MEK1/2, anti-p9^17/221-MEK1/2, anti-CAMKII, anti-pT^286-CAMKII, anti-p70 S6 kinase, anti-pT^389-p70 S6 kinase, anti-SAPK/JNK, and anti-pT^183/Y^185-SAPK/JNK (1:1,000) (Cell Signaling Technology). The membrane then was incubated with HRP-conjugated secondary antibody (Jackson ImmunoResearch). The protein bands were detected with the enhanced chemiluminescence reagents (Thermo Scientific). Band intensity was measured by Multi-Gauge V3 software (Fuji Photo Film).

PP2Ac = assay: PP2A regulatory factors (pTyr307-PP2Ac, demethylated Leu309, I1PP2A, I2PP2A) by Western blots in rat brain slices; assay type: cell-based; details: BMAA-treated rat brain slices (1 mM, 2 h)
Procedure: Male Wistar rats (Charles River Laboratories), 2-3 months old, were anesthetized by i.p. injection with 50 mg/kg Nembutal. The animals were decapitated when deeply anesthetized. The brains were removed immediately and cooled in ice-cold (4° C.) oxygenated artificial cerebrospinal fluid (aCSF) consisting of 126 mM NaCl, 3.5 mM KCl, 1.2 mM NaH2PO4, 1.3 mM MgCl2, 2 mM CaCl2, 11 mM D(+) glucose, and 25 mM NaHCO3 (pH 7.4) for 7-8 min. Each brain then was divided sagittally, and 400-μm-thick coronal slices were made with a Camden Vibraslicer (WP, Inc.). The slices were transferred into a chamber containing the oxygenated aCSF and were incubated at 33° C. for 2 h in the presence or absence of 1 mM, β-N ? methylamino-L-alanine (BMAA) dissolved in 10 mM NaHCO3 (Sigma). The oxygenation of the aCSF was carried out by bubbling the solution with a mixture of 95% O2 and 5% CO2 during the entire procedure. […]
Protein was fractionated by 10% SDS/PAGE, transferred to PVDF membrane, and then blocked with 5% skim milk for 1 h at room temperature. […] The protein bands were detected with the enhanced chemiluminescence reagents (Thermo Scientific). Band intensity was measured by Multi-Gauge V3 software (Fuji Photo Film).

CNC[C@H](N)C(=O)O [BMAA, β-N-methylamino-L-alanine]
PP2A activity (PP2A): significant inhibition | BMAA concentration causing selective death of motor neurons (motor neurons): ≥ 30 µM | cell death (LDH release) [1]: caused cell death | association of PP2Ac with mGluR5 (mGluR5-PP2A complex): led to the dissociation | increase in phosphorylation of tau at Ser199 (tau): 2.6 fold | increase in phosphorylation of tau at Ser262/356 (tau): 3.4 fold | increase in phosphorylation of tau at Thr205 (tau): 1.8 fold | increase in phosphorylation of tau at Thr212 (tau): 3.7 fold | phosphorylation of tau at Ser396 (tau): not any significant change | increase in phosphorylation of PP2Ac at Tyr307 (PP2Ac): 3.7 fold

From US10335400B2, “Treatment of tauopathies with mGluR5 antagonists” (priority 2014, dated 2019)
